Source: publication doi:10.1101/2024.12.12.628185v1 (biorxiv, 2024)

Target: T1, ERα (purified full-length human ERα) (Homo sapiens, UniProt P03372)
T1 sequence (P03372 1-595): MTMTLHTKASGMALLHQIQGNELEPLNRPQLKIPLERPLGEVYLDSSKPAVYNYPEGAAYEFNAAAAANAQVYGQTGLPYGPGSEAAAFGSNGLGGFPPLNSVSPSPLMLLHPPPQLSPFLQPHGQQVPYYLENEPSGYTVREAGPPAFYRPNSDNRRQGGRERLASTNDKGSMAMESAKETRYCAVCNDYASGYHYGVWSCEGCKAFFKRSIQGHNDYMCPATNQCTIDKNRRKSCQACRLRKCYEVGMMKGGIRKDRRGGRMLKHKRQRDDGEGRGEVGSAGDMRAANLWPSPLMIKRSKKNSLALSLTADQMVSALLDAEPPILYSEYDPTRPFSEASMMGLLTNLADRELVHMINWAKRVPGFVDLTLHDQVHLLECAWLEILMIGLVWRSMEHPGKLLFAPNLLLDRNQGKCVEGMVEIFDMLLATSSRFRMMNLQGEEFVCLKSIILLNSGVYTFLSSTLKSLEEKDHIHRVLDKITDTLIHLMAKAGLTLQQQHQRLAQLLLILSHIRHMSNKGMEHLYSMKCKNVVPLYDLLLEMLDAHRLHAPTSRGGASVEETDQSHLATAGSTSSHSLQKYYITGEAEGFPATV
Test: biochemical
Type: binding

## CCCCC(CC)COC(=O)c1ccccc1C(=O)OCC(CC)CCCC (stereo not shown) [DEHP]
  IC50: ~500 µM
